Laboratory results as given in US20240261417A1, “SOS1 DEGRADING AGENT AND PREPARATION METHOD THEREFOR AND APPLICATION THEREOF” (SHANGHAI LEADINGTAC PHARMACEUTICAL CO. LTD., priority 2021, published 2024).

Biological target: T1, SOS1 protein (Homo sapiens, UniProt Q07889)
T1 sequence (Q07889 1-1333): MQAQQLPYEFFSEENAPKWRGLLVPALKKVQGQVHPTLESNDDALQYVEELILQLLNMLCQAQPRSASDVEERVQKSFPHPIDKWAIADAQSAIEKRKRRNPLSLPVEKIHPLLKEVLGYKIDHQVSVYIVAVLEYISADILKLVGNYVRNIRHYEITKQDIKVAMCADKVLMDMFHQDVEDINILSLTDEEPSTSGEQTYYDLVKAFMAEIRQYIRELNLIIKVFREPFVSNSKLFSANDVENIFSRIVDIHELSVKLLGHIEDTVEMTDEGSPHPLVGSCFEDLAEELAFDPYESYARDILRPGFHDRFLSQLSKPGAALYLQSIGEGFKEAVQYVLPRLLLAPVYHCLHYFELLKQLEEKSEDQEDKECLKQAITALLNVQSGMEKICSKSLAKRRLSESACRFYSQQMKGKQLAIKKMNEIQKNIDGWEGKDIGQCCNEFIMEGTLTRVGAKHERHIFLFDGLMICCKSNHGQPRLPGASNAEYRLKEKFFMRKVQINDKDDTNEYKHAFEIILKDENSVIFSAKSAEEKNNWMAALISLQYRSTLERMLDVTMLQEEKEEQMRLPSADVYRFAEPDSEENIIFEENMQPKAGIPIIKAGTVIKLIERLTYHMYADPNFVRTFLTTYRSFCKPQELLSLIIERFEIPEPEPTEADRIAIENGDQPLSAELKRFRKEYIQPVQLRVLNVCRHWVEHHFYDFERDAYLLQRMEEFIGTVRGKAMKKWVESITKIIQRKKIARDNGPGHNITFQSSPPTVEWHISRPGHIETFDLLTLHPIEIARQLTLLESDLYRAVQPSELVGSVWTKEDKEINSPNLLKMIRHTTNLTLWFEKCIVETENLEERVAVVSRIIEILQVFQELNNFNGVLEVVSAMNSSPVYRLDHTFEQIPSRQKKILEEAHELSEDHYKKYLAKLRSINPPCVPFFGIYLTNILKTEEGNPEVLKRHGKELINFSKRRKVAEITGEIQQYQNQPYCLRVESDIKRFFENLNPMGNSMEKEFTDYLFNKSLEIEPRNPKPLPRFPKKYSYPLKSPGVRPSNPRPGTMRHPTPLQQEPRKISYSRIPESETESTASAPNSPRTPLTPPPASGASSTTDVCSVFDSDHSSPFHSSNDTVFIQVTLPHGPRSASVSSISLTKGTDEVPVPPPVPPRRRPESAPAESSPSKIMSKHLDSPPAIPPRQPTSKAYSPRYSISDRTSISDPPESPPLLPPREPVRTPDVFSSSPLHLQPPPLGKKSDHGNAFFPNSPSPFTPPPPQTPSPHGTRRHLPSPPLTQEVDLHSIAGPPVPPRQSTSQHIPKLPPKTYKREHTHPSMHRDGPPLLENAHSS
Experiment: SOS1 degradation assay (Western blot), NCI-H358 cells
Type: cell-based
Parameters: The degradation of SOS1 by the compounds was investigated on KRAS G12C mutant human non-small cell lung cancer cells NCI-H358; host or cells: NCI-H358 (human cancer cell lines)
Conditions: SOS1 degradation, NCI-H358 cells, 24 h, Western blot; for DC50: read-out: NCI-H358 (G12C) DC50; for Dmax: read-out: NCI-H358 (G12C) Dmax
Description: The specific procedures were as follows:
0.95 mL of cells were seeded into each well of a 24-well cell culture plate to achieve a cell density of 5×10^5 cells/well; the cell plate was incubated in an incubator at 37° C. with 5% CO2 overnight. Then 50 μL of the compound solution after dilution was added to each of the wells with the corresponding cells, so that the final concentration of the compound was in a range of 0.03-3000 nM. […] After dosing, the cell plate was incubated in an incubator at 37° C. with 5% CO2 for 24 h. […] After the plate was left to stand on ice for 30 min, the protein lysate in each well was transferred to a 1.5 mL centrifuge tube and centrifuged at 15000 g for 20 min at 4° C. The cell lysate supernatant after centrifugation was cryopreserved at −80° C. for testing and was used for determining the degradation level of the SOS1 protein by a WB method. The concentration of total protein in the cell lysate supernatant was determined using the BCA Protein Quantification Kit (Tiangen, PA115-02).
The concentration of total protein in the cell lysate was determined by BCA. The total protein was adjusted to 0.5 μg/μL with PBS and 5× SDS-PAGE protein loading buffer (Beyotime, P0015L), incubated in a water bath at 100° C. for 15 min, incubated in an ice bath on ice for 5 min, centrifuged at 14000 g for 1 min at 4° C., and mixed well as a loading sample for WB. Protein electrophoresis was performed on a precast gel (KeyGEN, KGMGO10W15) with a loading volume of 10 μL (total protein: 5 μg) using a Tris-MOPS-SDS running solution (Adamas, P1598253) at a constant voltage of 120 V for 55 min. After the electrophoresis, the protein on the gel strip was transferred to a PVDF membrane at a constant current of 250 mA for 65 min. After the membrane transfer, the membrane was incubated in 1× QuickBlock blocking buffer (Beyotime, P0235) for 30 min at room temperature. […] The protein map was subjected to gray value analysis by the chemiluminescence imaging system from Clinx. […] Then the degradation rate was calculated by comparing the gray correction value with the gray correction value of the control group. Then nonlinear curve fitting was performed by GraphPad Prism 8 in the logarithmic concentration-inhibition rate to obtain the DC50 and Dmax values of the compounds.

Row | DC50 [nM] | Dmax [%] | SMILES | NCI-H358 (G12C) Dmax
1 | < 50 | 50 to 80 | COc1cc2nc(C)nc(N[C@H](C)c3cc(N)cc(C(F)(F)F)c3)c2cc1[C@H]1CC[C@H](C(=O)N2CCC(CCCC3CCN(C(=O)c4ccc(Cl)c(N5CCC(=O)NC5=O)c4)CC3)CC2)CC1 [Example 14, 1-(5-(4-(3-(1-((1R,4R)-4-(4-(((R)-1-(3-amino-5-(trifluoromethyl)phenyl)ethyl)amino)-7-methoxy-2-methylquinazolin-6-yl)cyclohexane-1-carbonyl)piperidin-4-yl)propyl)piperidine-1-carbonyl)-2-chlorophenyl)dihydropyrimidine-2,4(1H,3H)-dione] | –
2 | 1000 to 10000 | < 30 | COc1cc2nc(C)nc(N[C@H](C)c3cc(N)cc(C(F)(F)F)c3)c2cc1[C@H]1CC[C@H](C(=O)N2CCC(CCCN(C)C3CCN(Cc4ccc(Cl)c(N5CCC(=O)NC5=O)c4)CC3)CC2)CC1 [Example 38, 1-(5-((4-((3-(1-((1R,4R)-4-(4-(((R)-1-(3-amino-5-(trifluoromethyl)phenyl)ethyl)amino)-7-methoxy-2-methylquinazolin-6-yl)cyclohexane-1-carbonyl)piperidin-4-yl)propyl)(methyl)amino)piperidin-1-yl)methyl)-2-chlorophenyl)dihydropyrimidine-2,4(1H,3H)-dione] | –
3 | 500 to 1000 | 80 to 100 | Cc1nc(N[C@H](C)c2cc(N)cc(C(F)(F)F)c2)c2cc(C3CCN(CC(=O)NCCC4CCC5(CC4)CCN(C(=O)c4ccc(Cl)c(N6CCC(=O)NC6=O)c4)CC5)CC3)ccc2n1 [Example 77, (R)-2-(4-(4-((1-(3-amino-5-(trifluoromethyl)phenyl)ethyl)amino)-2-methylquinazolin-6-yl)piperidin-1-yl)-N-(2-(3-(4-chloro-3-(2,4-dioxotetrahydropyrimidin-1(2H)-yl)benzoyl)-3-azaspiro[5.5]undecan-9-yl)ethyl)acetamide] | –
4 | 500 to 1000 | 50 to 80 | COc1cc2nc(C)nc(N[C@H](C)c3cccc(C(F)(F)F)c3F)c2cc1[C@H]1CC[C@H](C(=O)N2CCN(CC3CCC4(CC3)CCN(C(=O)c3ccc(Cl)c(N5CCC(=O)NC5=O)c3)CC4)CC2)CC1 [Example 16, 1-(2-chloro-5-(9-((4-((1R,4R)-4-(4-(((R)-1-(2-fluoro-3-(trifluoromethyl)phenyl)ethyl)amino)-7-methoxy-2-methylquinazolin-6-yl)cyclohexane-1-carbonyl)piperazin-1-yl)methyl)-3-azaspiro[5.5]undecane-3-carbonyl)phenyl)dihydropyrimidine-2,4(1H,3H)-dione] | –
5 | 1000 to 10000 | 30 to 50 | COc1cc2nc(C)nc(N[C@H](C)c3cc(N)cc(C(F)(F)F)c3)c2cc1[C@H]1CC[C@H](C(=O)N2CCN(CC3CCN(C(=O)c4ccc(Cl)c(N5CCC(=O)NC5=O)c4)CC3)CC2)CC1 [Example 13, 1-(5-(4-((4-((1R,4R)-4-(4-(((R)-1-(3-amino-5-(trifluoromethyl)phenyl)ethyl)amino)-7-methoxy-2-methylquinazolin-6-yl)cyclohexane-1-carbonyl)piperazin-1-yl)methyl)piperidine-1-carbonyl)-2-chlorophenyl)dihydropyrimidine-2,4(1H,3H)-dione] | –
6 | 1000 to 10000 | 30 to 50 | COc1cc2nc(C)nc(N[C@H](C)c3cc(N)cc(C(F)(F)F)c3)c2cc1[C@H]1CC[C@H](C(=O)N2CCN(CCCC3CCN(C(=O)c4ccc(Cl)c(N5CCC(=O)NC5=O)c4)CC3)CC2)CC1 [Example 11, 1-(5-(4-(3-(4-((1R,4R)-4-(4-(((R)-1-(3-amino-5-(trifluoromethyl)phenyl)ethyl)amino)-7-methoxy-2-methylquinazolin-6-yl)cyclohexane-1-carbonyl)piperazin-1-yl)propyl)piperidine-1-carbonyl)-2-chlorophenyl)dihydropyrimidine-2,4(1H,3H)-dione] | –
7 | 50 to 100 | 80 to 100 | COc1cc2nc(C)nc(N[C@H](C)c3cc(N)cc(C(F)(F)F)c3)c2cc1OC1CCN(C(=O)C2CCN(CC3CCC4(CC3)CCN(C(=O)c3ccc(Cl)c(N5CCC(=O)NC5=O)c3)CC4)CC2)CC1 [Example 5, (R)-1-(5-(9-((4-(4-((4-((1-(3-amino-5-(trifluoromethyl)phenyl)ethyl)amino)-7-methoxy-2-methylquinazolin-6-yl)oxy)piperidine-1-carbonyl)piperidin-1-yl)methyl)-3-azaspiro[5.5]undecane-3-carbonyl)-2-chlorophenyl)dihydropyrimidine-2,4(1H,3H)-dione] | –
8 | < 50 | 80 to 100 | COc1cc2nc(C)nc(N[C@H](C)c3cc(N)cc(C(F)(F)F)c3)c2cc1C1=CCC(C(=O)N2CCC(CCOCC3CCN(C(=O)c4ccc(OC)c(N5CCC(=O)NC5=O)c4)CC3)CC2)CC1 (stereo partly drawn) [Example 32, 1-(5-(4-((2-(1-(4-(4-(((R)-1-(3-amino-5-(trifluoromethyl)phenyl)ethyl)amino)-7-methoxy-2-methylquinazolin-6-yl)cyclohex-3-ene-1-carbonyl)piperidin-4-yl)ethoxy)methyl)piperidine-1-carbonyl)-2-methoxyphenyl)dihydropyrimidine-2,4(1H,3H)-dione] | –
9 | 50 to 100 | 30 to 50 | COc1cc2nc(C)nc(N[C@H](C)c3cc(N)cc(C(F)(F)F)c3)c2cc1C1CCN(C(=O)C2CCN(CC3CCC4(CC3)CCN(C(=O)c3ccc(Cl)c(N5CCC(=O)NC5=O)c3)CC4)CC2)CC1 [Example 4] | –

Row | SMILES | DC50 [nM] | Dmax [%] | NCI-H358 (G12C) Dmax
10 | COc1cc2nc(C)nc(N[C@H](C)c3cc(N)cc(C(F)(F)F)c3)c2cc1[C@H]1CC[C@H](C(=O)N(C)CCOCC#CC2CCN(C(=O)c3ccc(Cl)c(N4CCC(=O)NC4=O)c3)CC2)CC1 [Example 26, (1R,4R)-4-(4-(((R)-1-(3-amino-5-(trifluoromethyl)phenyl)ethyl)amino)-7-methoxy-2-methylquinazolin-6-yl)-N-(2-((3-(1-(4-chloro-3-(2,4-dioxotetrahydropyrimidin-1(2H)-yl)benzoyl)piperidin-4-yl)prop-2-yn-1-yl)oxo)ethyl)-N-methylcyclohexane-1-carboxamide] | 1000 to 10000 | – | D (when Dmax (%)<30, the level was D)
